Experimental findings from ChEMBL document CHEMBL1201862, “PubChem BioAssay data set” (2004) are described below.

Among the test systems are HCC 2998; BT-549; PC-3; SW-620; CAKI-1; SNB-75; HOP-92; SF-295; MDA-N; MDA-MB-435; NCI-H226; OVCAR-4; SK-MEL-2; MDA-MB-231; MOLT-4; TK-10; SNB-19; IGROV-1.
Assay in all cases: inhibition of tumour cell growth, NCI panel, 48 h

Each structure is given as a SMILES string.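 96-well plates; 48 h exposure; 5 concentrations. Endpoints by linear interpolation between flanking doses. Not reached: highest tested concentration assigned. The concentration for 50% growth inhibition is given as GI50.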 The source made the active and inactive calls. No stated cut-off is given here; in the data, active = GI50 up to about 1.1 µM and inactive = higher. A value given as a limit tells only on which side of the number the result lay.

As for `CO[C@H]1O[C@@H]2CO[C@@H](c3ccccc3)O[C@H]2C[C@]12CCC/C=C\CO2`, the GI50 in the assay with HCC 2998 is 18.7 µM (inactive); in the assay on BT-549, 12.6 µM (inactive); in the assay with PC-3 it was 16.2 µM (inactive); in the assay with SW-620 it was 20.6 µM (inactive); with CAKI-1 it was 25.9 µM (inactive); in the assay with SNB-75, 22.5 µM (inactive). The GI50 in the assay on HOP-92 was 13.5 µM (inactive); with SF-295, 25.8 µM (inactive); with MDA-N, 14.1 µM (inactive); in the assay with MDA-MB-435, 12.2 µM (inactive); in the assay on NCI-H226, 18.3 µM (inactive); in the assay with OVCAR-4, 21.9 µM (inactive). The GI50 is 15.9 µM (inactive) in the assay with SK-MEL-2; 16.7 µM (inactive) in the assay on MDA-MB-231; 12.9 µM (inactive) with MOLT-4; 22.6 µM (inactive) in the assay on TK-10; 22.8 µM (inactive) in the assay on SNB-19.

In the case of `CCn1cc2c(=O)n3ncn(-c4ccc(Br)cc4)c3nc2n1`, the GI50 in the assay with HCC 2998 is > 100 µM (inactive); in the assay with IGROV-1 it was 29.6 µM (inactive); in the assay with BT-549 it was > 100 µM (inactive); in the assay on PC-3 it was > 100 µM (inactive); in the assay on SW-620, > 100 µM (inactive); in the assay with CAKI-1, 0.942 µM (active). Further, the GI50 in the assay with SNB-75 was 21 µM (inactive); in the assay with SF-295 it was > 100 µM (inactive); in the assay on MDA-N it was > 100 µM (inactive); with MDA-MB-435 it was > 100 µM (inactive); in the assay on NCI-H226 it was > 100 µM (inactive); in the assay on OVCAR-4, > 100 µM (inactive). Moreover, the GI50 is > 100 µM (inactive) with SK-MEL-2; 40.6 µM (inactive) in the assay on MDA-MB-231; > 100 µM (inactive) in the assay with MOLT-4; 78.2 µM (inactive) with TK-10; 49.9 µM (inactive) with SNB-19.

For the compound `CCOC(=O)c1nc2ccc(C(F)(F)F)cc2nc1Nc1ccc(Cl)c(Cl)c1`, the GI50 is 39.5 µM (inactive) in the assay on HCC 2998; > 100 µM (inactive) in the assay with IGROV-1; > 100 µM (inactive) in the assay on BT-549; > 100 µM (inactive) in the assay with PC-3; > 100 µM (inactive) in the assay with SW-620; 57.1 µM (inactive) with CAKI-1. The GI50 in the assay with SNB-75 was 48.8 µM (inactive); in the assay on HOP-92, > 100 µM (inactive); in the assay on SF-295 it was 30.3 µM (inactive); with MDA-N, 96.8 µM (inactive); in the assay on MDA-MB-435 it was > 100 µM (inactive); in the assay with MDA-MB-231, 60 µM (inactive). Further, the GI50 with MOLT-4 is > 100 µM (inactive); in the assay with TK-10, > 100 µM (inactive); in the assay with SNB-19, 42.5 µM (inactive).

With `Cc1cc(=O)oc2cc(OC(=O)N(C)C)c(Cl)cc12`, the GI50 in the assay on HCC 2998, with IGROV-1, with BT-549, in the assay with PC-3, with SW-620 and in the assay on CAKI-1 was > 100 µM (inactive) throughout. Further, the GI50 was 82 µM (inactive) in the assay with HOP-92; > 10 µM (inactive) with SF-295; > 100 µM (inactive) with MDA-N; 65 µM (inactive) with MDA-MB-435; 29.3 µM (inactive) in the assay on NCI-H226; > 100 µM (inactive) with OVCAR-4. Also, the GI50 with SK-MEL-2 was 82.6 µM (inactive); with MDA-MB-231, > 100 µM (inactive); with MOLT-4, > 100 µM (inactive); in the assay on TK-10 it was > 100 µM (inactive); in the assay with SNB-19 it was 71.4 µM (inactive).

With `Clc1cccc(/N=C/C=C/Nc2cccc(Cl)c2)c1`, the GI50 in the assay on HCC 2998 was 11.9 µM (inactive); in the assay with IGROV-1, 16 µM (inactive); with BT-549, 16.1 µM (inactive); with PC-3 it was 15.1 µM (inactive); with SW-620 it was 22.9 µM (inactive); in the assay with CAKI-1 it was 26.1 µM (inactive). Besides, the GI50 with SNB-75 is > 10 µM (inactive); in the assay with HOP-92 it was 42.5 µM (inactive); with SF-295, 12.1 µM (inactive); with MDA-N, 13.9 µM (inactive); with MDA-MB-435, 15.6 µM (inactive); in the assay on NCI-H226 it was > 10 µM (inactive). Besides, the GI50 with OVCAR-4 was 40.4 µM (inactive); in the assay on MDA-MB-231, 15.7 µM (inactive); in the assay with MOLT-4, 22.2 µM (inactive); in the assay with TK-10, 37.8 µM (inactive); in the assay with SNB-19, > 10 µM (inactive).

Take `Cc1nc2sccn2c1C(=O)OCCOCCOCCOCCOC(=O)c1c(C)nc2sccn12`: the GI50 was > 100 µM (inactive) with HCC 2998; > 100 µM (inactive) in the assay on IGROV-1; 34.6 µM (inactive) with BT-549; 63.2 µM (inactive) in the assay on PC-3; > 100 µM (inactive) with SW-620; > 100 µM (inactive) with CAKI-1. Also, the GI50 in the assay on HOP-92 was > 100 µM (inactive); in the assay with SF-295 it was 63.4 µM (inactive); in the assay on MDA-N, 36.1 µM (inactive); with MDA-MB-435, 45.4 µM (inactive); in the assay on NCI-H226, 16 µM (inactive); in the assay on OVCAR-4, 71.8 µM (inactive). Moreover, the GI50 was 76.4 µM (inactive) with SK-MEL-2; > 100 µM (inactive) in the assay on MDA-MB-231; 18.2 µM (inactive) with MOLT-4; > 100 µM (inactive) in the assay with TK-10; > 100 µM (inactive) in the assay on SNB-19.

For the compound `CN1C(=O)C(O)CC1c1ccccc1C(F)(F)F` (centres undefined), the GI50 with HCC 2998, with IGROV-1, in the assay with BT-549, with PC-3, in the assay on SW-620 and in the assay with CAKI-1 was > 100 µM (inactive) each time. Moreover, the GI50 in the assay on SNB-75, with HOP-92, with SF-295, in the assay on MDA-N, in the assay on MDA-MB-435 and with NCI-H226 was > 100 µM (inactive) in each case. In addition, the GI50 in the assay with OVCAR-4, with SK-MEL-2, with MDA-MB-231, with MOLT-4 and in the assay on SNB-19 was > 100 µM (inactive) throughout.

Regarding `COc1cccc2cc(C(N)=O)c(=N)oc12`, the GI50 was 41.3 µM (inactive) in the assay with HCC 2998; 35.5 µM (inactive) in the assay with IGROV-1; > 100 µM (inactive) in the assay on BT-549; 65.3 µM (inactive) in the assay on PC-3; 99.1 µM (inactive) with SW-620; 39.4 µM (inactive) with CAKI-1. Further, the GI50 in the assay on SNB-75 was 63.2 µM (inactive); with HOP-92 it was 81.8 µM (inactive); with MDA-N, 59.7 µM (inactive); in the assay on MDA-MB-435, 42.3 µM (inactive); with NCI-H226, 96.2 µM (inactive); in the assay with OVCAR-4 it was 53.5 µM (inactive). Besides, the GI50 in the assay on SK-MEL-2 was 22.9 µM (inactive); in the assay on MDA-MB-231, 65.2 µM (inactive); in the assay on MOLT-4 it was > 100 µM (inactive); in the assay on SNB-19 it was 82 µM (inactive).

For the compound `O=c1onc2n1-c1cc(Cl)ccc1C(=S)N1CSCC21` (centres undefined), the GI50 in the assay with HCC 2998, with IGROV-1, with BT-549, in the assay on PC-3, in the assay on SW-620 and with CAKI-1 was > 100 µM (inactive) each time. The GI50 is 31.3 µM (inactive) in the assay with SNB-75; > 100 µM (inactive) with SF-295; > 100 µM (inactive) in the assay on MDA-N; > 100 µM (inactive) in the assay with MDA-MB-435; > 100 µM (inactive) with NCI-H226; > 100 µM (inactive) with OVCAR-4. In addition, the GI50 in the assay with SK-MEL-2, with MDA-MB-231, in the assay on MOLT-4, in the assay on TK-10 and with SNB-19 was > 100 µM (inactive) throughout.

In the case of `CC(CO)CCC(O)C(C)(O)C1CCC2(O)C3=CC(=O)C4CC(O)C(O)CC4(C)C3CCC12C` (centres undefined), the GI50 was > 100 µM (inactive) with HCC 2998; > 100 µM (inactive) in the assay on BT-549; > 100 µM (inactive) in the assay on PC-3; > 100 µM (inactive) in the assay on SW-620; > 100 µM (inactive) in the assay on CAKI-1; 84.3 µM (inactive) with SNB-75. Also, the GI50 with HOP-92, in the assay on SF-295, with MDA-N, in the assay on MDA-MB-435, in the assay with NCI-H226 and in the assay on OVCAR-4 was > 100 µM (inactive) throughout. Also, the GI50 in the assay on SK-MEL-2, in the assay on MDA-MB-231, in the assay on MOLT-4 and in the assay on SNB-19 was > 100 µM (inactive) in each case.

`COc1c2c(cc3occ(-c4ccc(CC=C(C)C)cc4)c(=O)c13)OC(C)(C)C=C2`: the GI50 was 59.2 µM (inactive) in the assay on HCC 2998; > 100 µM (inactive) in the assay on IGROV-1; 76.2 µM (inactive) with BT-549; 17.1 µM (inactive) in the assay on PC-3; 45.6 µM (inactive) with SW-620; > 100 µM (inactive) with CAKI-1. Moreover, the GI50 in the assay on SNB-75 is 60.1 µM (inactive); in the assay with SF-295, 35.4 µM (inactive); in the assay on MDA-N, 44.6 µM (inactive); in the assay with MDA-MB-435 it was 27 µM (inactive); in the assay with NCI-H226, 48.1 µM (inactive); with OVCAR-4, > 10 µM (inactive). Further, the GI50 in the assay on SK-MEL-2 was 11.2 µM (inactive); in the assay with MDA-MB-231, > 100 µM (inactive); with MOLT-4, 10.7 µM (inactive); with TK-10, 81.8 µM (inactive); in the assay with SNB-19, 61.1 µM (inactive).

As to `CCN(CC)C(=S)SC(C(=O)Nc1nnc(-c2ccc(Cl)cc2)o1)c1ccccc1` (centres undefined), the GI50 in the assay with HCC 2998 was 3.41 µM (inactive); with IGROV-1, 2.7 µM (inactive); with BT-549 it was 28.5 µM (inactive); in the assay on PC-3, 3.35 µM (inactive); in the assay on SW-620, 5.41 µM (inactive); in the assay with CAKI-1 it was 11.7 µM (inactive). The GI50 with HOP-92 is 16.6 µM (inactive); in the assay with SF-295, 12.8 µM (inactive); with MDA-N it was 17.3 µM (inactive); with MDA-MB-435, 14.2 µM (inactive); in the assay with OVCAR-4, 3.08 µM (inactive); with SK-MEL-2, 20.6 µM (inactive). Moreover, the GI50 in the assay with MDA-MB-231 is 26 µM (inactive); with MOLT-4, 3.48 µM (inactive); in the assay on TK-10, 23.5 µM (inactive); with SNB-19, 34.6 µM (inactive).
